Laboratory results taken from the NIST ThermoML archive (doi:10.1016/j.fluid.2005.04.021).
Numbers after ± are expanded uncertainties.

Assay: activity coefficient (dimensionless); of the first substance listed, at infinite dilution; xn = mol fraction of the nth substance listed
Conditions: Liquid, x1 = 0

| SMILES | activity coefficient (308.15 K) | activity coefficient (318.15 K) | activity coefficient (328.15 K) |
| --- | --- | --- | --- |
| C=CCCCCC [1-heptene] + CCCCCCCCCCCCCC[P+](CCCCCC)(CCCCCC)CCCCCC.FC(F)(F)C(F)(F)[P-](F)(F)(F)(C(F)(F)C(F)(F)F)C(F)(F)C(F)(F)F | 0.59 ± 0.06 | 0.58 ± 0.06 | 0.57 ± 0.06 |
| C#CCCCCC [1-heptyne] + CCCCCCCCCCCCCC[P+](CCCCCC)(CCCCCC)CCCCCC.FC(F)(F)C(F)(F)[P-](F)(F)(F)(C(F)(F)C(F)(F)F)C(F)(F)C(F)(F)F | 0.46 ± 0.05 | 0.46 ± 0.05 | 0.45 ± 0.05 |
| C#CCCCC [1-hexyne] + CCCCCCCCCCCCCC[P+](CCCCCC)(CCCCCC)CCCCCC.FC(F)(F)C(F)(F)[P-](F)(F)(F)(C(F)(F)C(F)(F)F)C(F)(F)C(F)(F)F | 0.42 ± 0.05 | 0.42 ± 0.05 | 0.41 ± 0.05 |
| C#CCCCCCC [1-octyne] + CCCCCCCCCCCCCC[P+](CCCCCC)(CCCCCC)CCCCCC.FC(F)(F)C(F)(F)[P-](F)(F)(F)(C(F)(F)C(F)(F)F)C(F)(F)C(F)(F)F | 0.57 ± 0.06 | 0.52 ± 0.06 | 0.51 ± 0.06 |
| c1ccccc1 [benzene] + CCCCCCCCCCCCCC[P+](CCCCCC)(CCCCCC)CCCCCC.FC(F)(F)C(F)(F)[P-](F)(F)(F)(C(F)(F)C(F)(F)F)C(F)(F)C(F)(F)F | 0.2 ± 0.06 | 0.19 ± 0.06 | 0.19 ± 0.06 |
| C1CCCCCC1 [cycloheptane] + CCCCCCCCCCCCCC[P+](CCCCCC)(CCCCCC)CCCCCC.FC(F)(F)C(F)(F)[P-](F)(F)(F)(C(F)(F)C(F)(F)F)C(F)(F)C(F)(F)F | 0.54 ± 0.06 | 0.52 ± 0.06 | 0.49 ± 0.06 |
| C1CCCCC1 [cyclohexane] + CCCCCCCCCCCCCC[P+](CCCCCC)(CCCCCC)CCCCCC.FC(F)(F)C(F)(F)[P-](F)(F)(F)(C(F)(F)C(F)(F)F)C(F)(F)C(F)(F)F | 0.49 ± 0.06 | 0.48 ± 0.05 | 0.44 ± 0.05 |
| C1CCCC1 [cyclopentane] + CCCCCCCCCCCCCC[P+](CCCCCC)(CCCCCC)CCCCCC.FC(F)(F)C(F)(F)[P-](F)(F)(F)(C(F)(F)C(F)(F)F)C(F)(F)C(F)(F)F | 0.42 ± 0.05 | 0.42 ± 0.05 | 0.41 ± 0.05 |
| CCO [ethanol] + CCCCCCCCCCCCCC[P+](CCCCCC)(CCCCCC)CCCCCC.FC(F)(F)C(F)(F)[P-](F)(F)(F)(C(F)(F)C(F)(F)F)C(F)(F)C(F)(F)F | 1.2 ± 0.09 | 1.07 ± 0.08 | 0.93 ± 0.07 |
| CCCCCCC [heptane] + CCCCCCCCCCCCCC[P+](CCCCCC)(CCCCCC)CCCCCC.FC(F)(F)C(F)(F)[P-](F)(F)(F)(C(F)(F)C(F)(F)F)C(F)(F)C(F)(F)F | 0.74 ± 0.06 | 0.72 ± 0.06 | 0.7 ± 0.06 |
| C=CCCCC [hex-1-ene] + CCCCCCCCCCCCCC[P+](CCCCCC)(CCCCCC)CCCCCC.FC(F)(F)C(F)(F)[P-](F)(F)(F)(C(F)(F)C(F)(F)F)C(F)(F)C(F)(F)F | 0.53 ± 0.06 | 0.53 ± 0.06 | 0.52 ± 0.06 |

Second part, the molecule after the results:

| activity coefficient (308.15 K) | activity coefficient (318.15 K) | activity coefficient (328.15 K) | SMILES |
| --- | --- | --- | --- |
| 0.66 ± 0.06 | 0.64 ± 0.06 | 0.62 ± 0.06 | CCCCCC [hexane] + CCCCCCCCCCCCCC[P+](CCCCCC)(CCCCCC)CCCCCC.FC(F)(F)C(F)(F)[P-](F)(F)(F)(C(F)(F)C(F)(F)F)C(F)(F)C(F)(F)F |
| 1.23 ± 0.09 | 1.14 ± 0.08 | 1.01 ± 0.07 | CO [methanol] + CCCCCCCCCCCCCC[P+](CCCCCC)(CCCCCC)CCCCCC.FC(F)(F)C(F)(F)[P-](F)(F)(F)(C(F)(F)C(F)(F)F)C(F)(F)C(F)(F)F |
| 0.67 ± 0.06 | 0.65 ± 0.06 | 0.64 ± 0.06 | C=CCCCCCC [oct-1-ene] + CCCCCCCCCCCCCC[P+](CCCCCC)(CCCCCC)CCCCCC.FC(F)(F)C(F)(F)[P-](F)(F)(F)(C(F)(F)C(F)(F)F)C(F)(F)C(F)(F)F |
| 0.84 ± 0.06 | 0.8 ± 0.06 | 0.77 ± 0.06 | CCCCCCCC [octane] + CCCCCCCCCCCCCC[P+](CCCCCC)(CCCCCC)CCCCCC.FC(F)(F)C(F)(F)[P-](F)(F)(F)(C(F)(F)C(F)(F)F)C(F)(F)C(F)(F)F |
| 0.61 ± 0.06 | 0.6 ± 0.06 | 0.59 ± 0.06 | CCCCC [pentane] + CCCCCCCCCCCCCC[P+](CCCCCC)(CCCCCC)CCCCCC.FC(F)(F)C(F)(F)[P-](F)(F)(F)(C(F)(F)C(F)(F)F)C(F)(F)C(F)(F)F |
| 1.16 ± 0.09 | 1 ± 0.07 | 0.87 ± 0.06 | CCCO [propan-1-ol] + CCCCCCCCCCCCCC[P+](CCCCCC)(CCCCCC)CCCCCC.FC(F)(F)C(F)(F)[P-](F)(F)(F)(C(F)(F)C(F)(F)F)C(F)(F)C(F)(F)F |
